Source: patent US5498522A, “Methods for the use of spermidine/spermine N^1 -acetyltransferase as a prognostic indicator and/or a tumor response marker” (priority 1993, dated 1996)
Entries after “also recorded” stand apart in the source; their conditions may differ.

Tests used:
[1] = test system: ornithine decarboxylase (ODC); conditions: in-vitro; cited from earlier work
[2] = tolerated dose / host toxicity in xenograft-bearing mice; conditions: mouse, in vivo, every 8 hours for 6 days, read-out: tolerated dose (higher doses were toxic)
Protocol: […] where 1 represents length; w--width; and h--height. Tumor sizes were monitored 2 times/week until the median volume (V=0.4(a^2 ×b) where a is the smaller of the two perpendicular tumor diameters). As an indication of drug toxicity, animal weights were also recorded at the time of tumor volume measurement. Statistical analyses were performed on mouse tumor size and weight parameters by using the Mann-Whitney test.
As illustrated in Table 1 with MALME-3 human melanoma cells, the rank order effectiveness of three polyamine analogs in inducing SSAT levels both in-vitro and in-vivo were BENSPM>BESPM>BEHSPM, with substantial differences in induction between them. The same three polyamine analogs were analyzed for their effectiveness in inducing a potent antitumor response in-vivo. Mice developing palpable tumors of a similar size were divided into different treatment groups comprising 5 mice per treatment group, and 10 control mice per treatment group. The treatment groups, and treatment regimen. per group, were as follows: BEHSPM: administered every 8 hours for a 6 day period with group 1 receiving 1.5 mg/kg; group 2 receiving 3.0 mg/kg; and group 3 receiving 6.0 mg/kg.
BESPM: administered every 8 hours for a 6 day period with group 1 receiving 10 mg/kg; group 2 receiving 20 mg/kg; and group 3 receiving 40 mg/kg.
BENSPM: administered every 8 hours for a 6 day period with group 1 receiving 20 mg/kg; group 2 receiving 40 mg/kg; and group 3 receiving 80 mg/kg.
Note that the highest drug dosages for each analog approach the maximally tolerated dosage for that particular analog (for example, BEHSPM at 6 mg/kg; BESPM at 20 mg/kg; and BENSPN at 80 mg/kg were tolerated by treated animals, whereas higher doses were toxic). Tumor cells comprising the human xenograft were removed from two animals of each group and assayed for SSAT induction. […]

[3] = test system: spermidine/spermine N^1 -acetyltransferase (SSAT); assay: SSAT induction in human tumor xenografts in athymic mice in-vivo; conditions: for level of induction of SSAT: 40 mg/kg every 8 hours for 5 days, 16 hours after final injection; for Avg. SSAT Activity: measured 24 hours after final treatment (Table 8)
Protocol: For the in-vivo treatment, 10^7 cultured MALME-3 melanoma cells were injected subcutaneously into 20 gram female nude athymic mice. After four in-vivo passages, tumor was removed and 40-50 mm^3 fragments were selected for implantation into mice via subcutaneous trocar implantation. Mice developing palpable tumors of a similar size were divided into different treatment groups comprising mice per group. Following treatment of the mice with a dosage approaching the maximally tolerated dose of the respective bis-ethyl spermine analog, the tumor cells comprising the human xenograft were removed and assayed for SSAT induction. […] Also indicated in Table 1, the level of SSAT induction in-vivo by BESPM was less than 20 fold that of BEHSPM, and the level of SSAT induction in-vivo by BENSPM was about 6 fold greater than that of BESPM. Thus, a conclusion from the results depicted in Table 1 is the rank order in effectiveness of the his-ethyl spermine analogs to induce SSAT levels in-vitro correlated well with their effectiveness to induce SSAT levels in-vivo.
In accordance with the above methods for assaying the induction of SSAT levels in tumor cell lines treated in-vitro and xenografts treated in-vivo, the induction pattern also correlates fairly well amongst different clonal lines of a particular tumor type. This can be illustrated with melanoma clonal lines LOX, SH-1, PANUT-3, and MALME-3.
In accordance with the above methods for assaying the induction of SSAT levels in tumor cell lines treated in-vitro and xenografts treated in-vivo, the induction pattern also correlates fairly well amongst carcinomas of solid organs. This can be illustrated with malignant clonal lines A121, A549, and HT29.
Note that the highest drug dosages for each analog approach the maximally tolerated dosage for that particular analog (for example, BEHSPM at 6 mg/kg; BESPM at […]; and BENSPN at 80 mg/kg were tolerated by treated animals, whereas higher doses were toxic). Tumor cells comprising the human xenograft were removed from two animals of each group and assayed for SSAT induction. […] Thus, the antitumor activity for these three analogs correlated with their ability to induce SSAT activity in the same tumor cells growing in-vitro and in-vivo, with the rank order of effectiveness in inducing SSAT levels being: BENSPM>BESPM>BEHSPM (Table 4).
Additional studies were performed using BENSPM treatment of human xenografts to determine if there exists a correlation between antitumor activity and SSAT induction in-vivo. SSAT activity was measured using cell extracts obtained by sonication, in 5 mMN-2 hydroxypiperazine-N^2 -ethanesulfonic acid (pH 7.2) containing 1 mM dithiothreitol, of tumor biopsy from treated mice, and tumor biopsy from control mice. The cytosolic extract resulting from a 1 hour centrifugation at 35,000 rpm in a Spinco 40 rotor was used as the source of the enzyme for the assay of SSAT activity. The cytosolic extract was incubated with 10 μmol HEPES buffer, pH7.8, 0.15 nmol spermidine, and 0.5 nmol [1-^14 C] acetylCoenzyme A, in a final volume of 50 μl, for 5 minutes at 37° C. The reaction was stopped by chilling, the addition of 20 μl of 0.5 M NH2 OH.Cl, and heating in a boiling water bath for 3 minutes. After centrifugation to remove precipitated protein, 50 μl of the reaction was spotted on a disc of P-81 phosphocellulose and counted for radioactivity. Protein concentration was also measured so that enzyme activity was expressed as picomoles of acetylspermine synthesized per minute per milligram of protein.
To illustrate this embodiment, SSAT activity was analyzed in tumor tissue and normal tissue from 2 mice following BENSPM treatment of 5 mice at 40 mg/kg, three times daily, for 6 days (Porter et al., 1993, supra). […]

[4] = test system: spermidine/spermine N^1 -acetyltransferase (SSAT); conditions: cited from earlier work
[5] = MALME-3 xenograft, maximally tolerated dose, every 8 hours for 6 days

Question: For CCNCCCCNCCCCNCCCCNCC [BEHSPM, N^1,N^14 -bis(ethyl)homospermine], which ODC suppression [1] is on record?
Answer: Its ODC suppression is “similarly suppress ornithine and S-adenosyl-methionine decarboxylase levels”.

Question: And the MTD at 144 h [2]?
Answer: Its MTD at 144 h is 6 mg/kg.

Question: And the SSAT induction in-vivo [3, 5]?
Answer: Its SSAT induction in-vivo is 125 pmol/min/mg.

Question: What does the source list for CCNCCCNCCCNCCCNCC [BENSPM, N^1,N^11 -bis(ethyl)norspermine]?
Answer: ODC suppression [1]: similarly suppress ornithine and S-adenosyl-methionine decarboxylase levels; MTD at 144 h [2]: 80 mg/kg; SSAT induction in-vivo ([3]; A121 xenograft, BENSPM 40 mg/kg 3x/day 6 days, 16 hours post-treatment): 2,905 pmol/min/mg; SSAT activity ([3]; A121 xenograft, measured 24 hours after final treatment (Table 9)): 2905 pmol/min/mg; SSAT induction in-vivo ([3]; A549 xenograft, BENSPM 40 mg/kg 3x/day 6 days, 16 hours post-treatment): 14,295 pmol/min/mg; SSAT activity ([3]; A549 xenograft, measured 24 hours after final treatment (Table 9)): 14295 pmol/min/mg; SSAT induction in-vivo ([3]; HT29 xenograft, BENSPM 40 mg/kg 3x/day 6 days, 16 hours post-treatment): 3,535 pmol/min/mg; SSAT activity ([3]; HT29 xenograft, measured 24 hours after final treatment (Table 9)): 3535 pmol/min/mg; level of induction of SSAT ([3]; LOX xenograft): 160 pmol/mg/min; SSAT induction in-vivo ([3]; LOX xenograft, BENSPM 40 mg/kg 3x/day 6 days, 16 hours post-treatment): 160 (200/115) pmol/min/mg; Avg. SSAT Activity ([3]; LOX xenograft): 157 pmol/min/mg; Avg. SSAT Activity ([3]; MALME-3M xenograft): 13,710 pmol/min/mg; SSAT induction in-vivo relative to BESPM ([3]; MALME-3 xenograft): about 6 fold; level of induction of SSAT ([3]; MALME-3 xenograft): 24,018 pmol/mg/min; SSAT induction in-vivo ([3]; MALME-3 xenograft, BENSPM 40 mg/kg 3x/day 6 days, 16 hours post-treatment (Table 2)): 13,710 (11,490/15,930) pmol/min/mg; SSAT induction in-vivo [3, 5]: 15,700 pmol/min/mg; SSAT activity ([3]; PANUT-3 tumor, 80 mg/kg, 2 wks post-treatment): 130 pmol/min/mg; SSAT induction in-vivo ([3]; PANUT-3 xenograft, BENSPM 40 mg/kg 3x/day 6 days, 16 hours post-treatment): 25,575 (23,140/22,010) pmol/min/mg; Avg. SSAT Activity ([3]; PANUT-3 xenograft): 22,750 pmol/min/mg; SSAT induction in-vivo ([3]; SH-1 xenograft, BENSPM 40 mg/kg 3x/day 6 days, 16 hours post-treatment): 7,150 (7,495/6,810) pmol/min/mg; Avg. SSAT Activity ([3]; SH-1 xenograft): 7,150 pmol/min/mg; SSAT induction, relative ([3]; treated in-vitro and in-vivo, compared to two other analogs): greatest induction of SSAT; SSAT induction in-vitro, PANUT-3 versus MALME-3 ([4]; BENSPM): induced to greater levels in PANUT-3 than in MALME-3

Question: With CCNCCCNCCCCNCCCNCC [BESPM, N^1,N^12-bis(ethyl)spermine] as the molecule, how does the ODC suppression [1] read?
Answer: The ODC suppression was “rapidly suppress ODC and SAMDC; also recorded: similarly suppress ornithine and S-adenosyl-methionine decarboxylase levels”.

Question: And the MTD at 144 h [2]?
Answer: Its MTD at 144 h is 20 mg/kg.

Question: And the “SSAT induction in-vivo relative to BEHSPM” value ([3]; MALME-3 xenograft)?
Answer: The value was “less than 20 fold”.

Question: And the “SSAT levels after treatment” value ([4]; MALME-3, in-vitro)?
Answer: The value was “extreme induction of SSAT levels”.
